Experimental data published in patent US20120029187A1, “HALOALKYLSULFONANILIDE DERIVATIVE” (Nissan Chemical Industries, Ltd., priority 2009, published 2012).

How the values were obtained:
Assay type in all cases: in vivo
barnyardgrass [1] = test: Test Example 1: herbicidal effects in preemergence treatment under submerged conditions; conditions: dose 2.52 g/a
Method in brief: (§1)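 Weed seeds and 2.5-leaf rice seedlings shared each flooded cup of alluvial soil. Dosing, expressed as g per are, was by pouring water-diluted emulsifiable concentrate onto the surface on sowing day. Mortality was graded 0 to 5 after three weeks' growth.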

bulrush [2] = test: as above; conditions: dose 2.52 g/a
Method in brief: as §1

ducksalad [3] = test: as above; conditions: dose 2.52 g/a
Method in brief: as §1

transplanted rice = test: Test Example 1: preemergence treatment under submerged conditions, effect on crop; conditions: dose 2.52 g/a
Method in brief: as §1

barnyardgrass [4] = test: Test Example 2: herbicidal effects during the vegetation period under submerged conditions; conditions: treatment during the vegetation period under submerged conditions; dose 2.52 g/a
Method in brief: (§2)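 Barnyardgrass, bulrush and ducksalad were co-sown in alluvial soil flooded to 4 cm and grown in a greenhouse at 25 to 30° C. At the 1- or 2-leaf stage, water-diluted emulsifiable concentrates went onto the water surface at set doses (g/a). Herbicidal effect was scored three weeks later on a graded scale.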

bulrush [5] = test: as above; conditions: treatment during the vegetation period under submerged conditions; dose 2.52 g/a
Method in brief: as §2

ducksalad [6] = test: as above; conditions: treatment during the vegetation period under submerged conditions; dose 2.52 g/a
Method in brief: as §2

Italian ryegrass [7] = test: Test Example 3: herbicidal effects in soil treatment; conditions: dose 3.2 g/a
Method in brief: (§3)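 Seeds were sown in sterilized diluvial soil and covered with about 1.5 cm of soil. Compounds, formulated as emulsifiable concentrates and diluted with water, were sprayed evenly over the soil surface at set doses in g/a. Herbicidal effect was scored on a rating scale three weeks later.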

barnyardgrass [8] = test: as above; conditions: dose 3.2 g/a
Method in brief: as §3

common chickweed [9] = test: as above; conditions: dose 3.2 g/a
Method in brief: as §3

common lambsquater [10] = test: as above; conditions: dose 3.2 g/a
Method in brief: as §3

common ragweed [11] = test: as above; conditions: dose 3.2 g/a
Method in brief: as §3

giant foxtail [12] = test: as above; conditions: dose 3.2 g/a
Method in brief: as §3

large crabgrass [13] = test: as above; conditions: dose 3.2 g/a
Method in brief: as §3

posumbu knotweed [14] = test: as above; conditions: dose 3.2 g/a
Method in brief: as §3

redroot pigweed [15] = test: as above; conditions: dose 3.2 g/a
Method in brief: as §3

water foxtail [16] = test: as above; conditions: dose 3.2 g/a
Method in brief: as §3

wild oat [17] = test: as above; conditions: dose 3.2 g/a
Method in brief: as §3

Italian ryegrass [18] = test: Test Example 4: herbicidal effect in foliage treatment; conditions: dose 3.2 g/a, three weeks after application
Method in brief: (§4)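 Seeds sown in sterilized diluvial soil under ~1.5 cm soil cover and grown 14 days in a greenhouse at 25 to 30° C. Emulsifiable concentrates diluted with water were then sprayed uniformly on foliage at predetermined doses (g/a). Herbicidal effect was scored three weeks after application on a graded evaluation scale.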

barnyardgrass [19] = test: as above; conditions: dose 3.2 g/a, three weeks after application
Method in brief: as §4

beadstraw = test: as above; conditions: dose 3.2 g/a, three weeks after application
Method in brief: as §4

common chickweed [20] = test: as above; conditions: dose 3.2 g/a, three weeks after application
Method in brief: as §4

common lambsquater [21] = test: as above; conditions: dose 3.2 g/a, three weeks after application
Method in brief: as §4

common ragweed [22] = test: as above; conditions: dose 3.2 g/a, three weeks after application
Method in brief: as §4

giant foxtail [23] = test: as above; conditions: dose 3.2 g/a, three weeks after application
Method in brief: as §4

large crabgrass [24] = test: as above; conditions: dose 3.2 g/a, three weeks after application
Method in brief: as §4

posumbu knotweed [25] = test: as above; conditions: dose 3.2 g/a, three weeks after application
Method in brief: as §4

redroot pigweed [26] = test: as above; conditions: dose 3.2 g/a, three weeks after application
Method in brief: as §4

velvetleaf = test: as above; conditions: dose 3.2 g/a, three weeks after application
Method in brief: as §4

water foxtail [27] = test: as above; conditions: dose 3.2 g/a, three weeks after application
Method in brief: as §4

wild oat [28] = test: as above; conditions: dose 3.2 g/a, three weeks after application
Method in brief: as §4

Structure (SMILES) | A: barnyardgrass, herbicidal effect (evaluation scale 0-5) (barnyardgrass [1]) | B: bulrush, herbicidal effect (evaluation scale 0-5) (bulrush [2]) | C: ducksalad, herbicidal effect (evaluation scale 0-5) (ducksalad [3]) | a: transplanted rice, effect on crop (evaluation scale 0-5) (transplanted rice) | A: barnyardgrass, herbicidal effect (evaluation scale 0-5) (barnyardgrass [4]) | B: bulrush, herbicidal effect (evaluation scale 0-5) (bulrush [5]) | C: ducksalad, herbicidal effect (evaluation scale 0-5) (ducksalad [6]) | H: Italian ryegrass, herbicidal effect (evaluation scale 0-5) (Italian ryegrass [7]) | A: barnyardgrass, herbicidal effect (evaluation scale 0-5) (barnyardgrass [8]) | N: common chickweed, herbicidal effect (evaluation scale 0-5) (common chickweed [9]) | L: common lambsquater, herbicidal effect (evaluation scale 0-5) (common lambsquater [10]) | J: common ragweed, herbicidal effect (evaluation scale 0-5) (common ragweed [11]) | E: giant foxtail, herbicidal effect (evaluation scale 0-5) (giant foxtail [12]) | D: large crabgrass, herbicidal effect (evaluation scale 0-5) (large crabgrass [13]) | M: posumbu knotweed, herbicidal effect (evaluation scale 0-5) (posumbu knotweed [14]) | K: redroot pigweed, herbicidal effect (evaluation scale 0-5) (redroot pigweed [15]) | G: water foxtail, herbicidal effect (evaluation scale 0-5) (water foxtail [16]) | F: wild oat, herbicidal effect (evaluation scale 0-5) (wild oat [17]) | H: Italian ryegrass, herbicidal effect (Italian ryegrass [18]) | A: barnyardgrass, herbicidal effect (barnyardgrass [19]) | also measured
CC(C)(C)COC(=O)N(c1ccccc1CN1COC(C)(C)CC1=O)S(=O)(=O)C(F)(F)F [II-27] | 5 (mortality of 90% or above (nearly complete death)) | 5 (mortality of 90% or above (nearly complete death)) | 5 (mortality of 90% or above (nearly complete death)) | 0 (mortality of less than 5% (almost ineffective)) | 5 (mortality of 90% or above (nearly complete death)) | 5 (mortality of 90% or above (nearly complete death)) | 5 (mortality of 90% or above (nearly complete death)) | 3 (mortality of at least 40% and less than 70%) | 5 (mortality of 90% or above (nearly complete death)) | 4 (mortality of at least 70% and less than 90%) | 0 (mortality of less than 5% (almost ineffective)) | 4 (mortality of at least 70% and less than 90%) | 4 (mortality of at least 70% and less than 90%) | 5 (mortality of 90% or above (nearly complete death)) | 3 (mortality of at least 40% and less than 70%) | 0 (mortality of less than 5% (almost ineffective)) | 5 (mortality of 90% or above (nearly complete death)) | 0 (mortality of less than 5% (almost ineffective)) | 3 (mortality of at least 40% and less than 70%) | 5 (mortality of 90% or above (nearly complete death)) | O: beadstraw, herbicidal effect (beadstraw): 4 (mortality of at least 70% and less than 90%); N: common chickweed, herbicidal effect (common chickweed [20]): 3 (mortality of at least 40% and less than 70%); L: common lambsquater, herbicidal effect (common lambsquater [21]): 3 (mortality of at least 40% and less than 70%); J: common ragweed, herbicidal effect (common ragweed [22]): 4 (mortality of at least 70% and less than 90%); E: giant foxtail, herbicidal effect (giant foxtail [23]): 3 (mortality of at least 40% and less than 70%); D: large crabgrass, herbicidal effect (large crabgrass [24]): 4 (mortality of at least 70% and less than 90%); M: posumbu knotweed, herbicidal effect (posumbu knotweed [25]): 3 (mortality of at least 40% and less than 70%); K: redroot pigweed, herbicidal effect (redroot pigweed [26]): 0 (mortality of less than 5% (almost ineffective)); I: velvetleaf, herbicidal effect (velvetleaf): 5 (mortality of 90% or above (nearly complete death)); G: water foxtail, herbicidal effect (water foxtail [27]): 3 (mortality of at least 40% and less than 70%); F: wild oat, herbicidal effect (wild oat [28]): 0 (mortality of less than 5% (almost ineffective))
O=C1CC(c2ccccc2)OCN1Cc1ccccc1N(C(=O)OCCCl)S(=O)(=O)C(F)(F)F (centres unmarked) [II-12] | 5 (mortality of 90% or above (nearly complete death)) | 5 (mortality of 90% or above (nearly complete death)) | 5 (mortality of 90% or above (nearly complete death)) | 0 (mortality of less than 5% (almost ineffective)) | 4 (mortality of at least 70% and less than 90%) | 5 (mortality of 90% or above (nearly complete death)) | 5 (mortality of 90% or above (nearly complete death)) | 4 (mortality of at least 70% and less than 90%) | 4 (mortality of at least 70% and less than 90%) | 3 (mortality of at least 40% and less than 70%) | 0 (mortality of less than 5% (almost ineffective)) | 0 (mortality of less than 5% (almost ineffective)) | 5 (mortality of 90% or above (nearly complete death)) | 4 (mortality of at least 70% and less than 90%) | 0 (mortality of less than 5% (almost ineffective)) | 0 (mortality of less than 5% (almost ineffective)) | 5 (mortality of 90% or above (nearly complete death)) | 0 (mortality of less than 5% (almost ineffective)) | 0 (mortality of less than 5% (almost ineffective)) | 5 (mortality of 90% or above (nearly complete death)) | O: beadstraw, herbicidal effect (beadstraw): 4 (mortality of at least 70% and less than 90%); N: common chickweed, herbicidal effect (common chickweed [20]): 3 (mortality of at least 40% and less than 70%); L: common lambsquater, herbicidal effect (common lambsquater [21]): 0 (mortality of less than 5% (almost ineffective)); J: common ragweed, herbicidal effect (common ragweed [22]): 4 (mortality of at least 70% and less than 90%); E: giant foxtail, herbicidal effect (giant foxtail [23]): 3 (mortality of at least 40% and less than 70%); D: large crabgrass, herbicidal effect (large crabgrass [24]): 2 (mortality of at least 20% and less than 40%); M: posumbu knotweed, herbicidal effect (posumbu knotweed [25]): 1 (mortality of at least 5% and less than 20%); K: redroot pigweed, herbicidal effect (redroot pigweed [26]): 0 (mortality of less than 5% (almost ineffective)); I: velvetleaf, herbicidal effect (velvetleaf): 3 (mortality of at least 40% and less than 70%); G: water foxtail, herbicidal effect (water foxtail [27]): 4 (mortality of at least 70% and less than 90%); F: wild oat, herbicidal effect (wild oat [28]): 0 (mortality of less than 5% (almost ineffective))
